Results as given in a melting point compilation (Tetko et al.; mined from patent text by program, amines drawn as free bases though some values may be those of a salt).

Compound | melting point [°C]
O=C(Nc1c[nH]nc1C(=O)NCC(F)(F)F)c1ccccn1 | 235 to 236
CCOC(=O)C(=O)c1csc(NC(=O)Nc2ccc(F)cc2)n1 | 220 to 223
Nc1cccc(-c2cccc(CC3CCCC3NCCc3ccccc3)c2)n1 (stereo unspecified) | 110 to 130
CCC1(CC)C(=O)N(C(C)(C)C)CC(C)(C)N1OC(=O)C(c1ccccc1)c1ccccc1 | 109
NS(=O)(=O)c1cccnc1N1CCSCC1 | 176 to 177
O=[N+]([O-])c1ccccc1N=Nc1ccccc1 | 139 to 141
COn1nnc2cc(Cn3ccnc3)ccc21 | 94.3
COc1cc(F)c(C)cc1[N+](=O)[O-] | 71 to 74
COC(=O)c1cccc(NC(=O)Oc2ccc([N+](=O)[O-])cc2)c1 | 184 to 186
N#Cc1cc(C(=O)NCc2cccc([N+](=O)[O-])c2)c(OCC(=O)O)cc1F | 179 to 180
COC(=O)c1ccccc1SSc1ccccc1C(=O)Nc1ccc(S(N)(=O)=O)cc1 | 288 to 290
COc1ccc(Br)c(-c2nc(=S)n(Cc3ccccc3)[nH]2)c1 | 154 to 155
CC(C)(NC(=O)C1=C(C(=O)Nc2cc(OC3CCCC3)c(Cl)cc2F)CCCC1)c1ccc(Cl)cc1 | 218 to 219
CCOC(=O)c1cnc2nc(OCC)ccc2c1O | 175 to 179
CCC(CC)c1ccc(Cl)c2nc3n(c12)CCCCN3c1ncc(C(N)=O)cc1C | 234 to 235
C[C@H]1CC(=O)O[C@@H]1CO | 104 to 105

Compound | melting point [°C]
CCCCC1=N/C(=C\c2c[nH]c3ncc(Cl)cc23)C(=O)N1C | 295 to 300
O=C(CC1COC1)N[C@H]1CC[C@H](CCN2CCN(c3cccc4c3OCO4)CC2)CC1 | 190
C#CC(Cn1ncnn1)n1nnc2cc3c(=O)n(C4CC4)nnc3cc2c1=O (stereo unspecified) | 224 to 225
O=C(O)Cc1cn(S(=O)(=O)c2c(Cl)nc3sccn23)c2ccccc12 | 220 to 222
CCOC(=O)C1=C(C)NC(C(OCC)OCC)=C(C(=O)OCC)C1c1cc([N+](=O)[O-])ccc1Cl (stereo unspecified) | 117 to 118
O=[N+]([O-])c1cc(Cl)c(Oc2ccc(Cl)c3ccccc23)c(Cl)c1 | 145 to 147
COc1ccc(CCC(=O)C2C(=O)NC(=O)NC2=O)cc1 | 248 to 250
CS(=O)(=O)Oc1ccc(=O)[nH]n1 | 148
CCC(C)n1ncn(-c2ccc(N3CCN(c4ccc(OC)cc4)CC3)cn2)c1=O (stereo unspecified) | 139 to 140
Cc1c(C(=O)O)sc2[nH]c(=O)c(=O)[nH]c12 | 289 to 294
C=C(C)C1CCC2(CO)CCC3(C)C(CCC4C5(C)CCC(O)C(C)(CO)C5CCC43C)C12 (stereo unspecified) | 256 to 260
NC(N)=Nc1nc(-c2ccc(C(=O)NC(=O)c3cccnc3)o2)cs1 | 217
Cc1nc2ccccc2c(=O)n1-c1ccc(Cl)cc1 | 141 to 142
CC(C(=NO)c1ccc(Cl)cc1Cl)c1cccnc1 (stereo unspecified) | 163 to 165
CCCCN1CCC(N(Cc2ccc(Nc3ccnc4ccccc34)cc2)C(C)=O)CC1 | 85 to 105

The next lines start with the values.

melting point [°C] | Compound
166 to 168 | CC(C)[C@H](NC(=O)OCc1ccccn1)C(=O)N[C@@H](Cc1ccccc1)[C@H](O)[C@H](O)[C@H](Cc1ccccc1)NC(=O)OCc1cccnc1
65 | Cc1cc(Oc2cc(C(F)(F)F)nn2C)nc(Cl)n1
154 to 156 | CS(=O)(=O)c1ccc(-c2cnn(CC(F)(F)F)c(=O)c2Nc2ccccc2)cc1
155 to 156 | O=C(O)COc1ccc2cc(-c3oc4ccccc4c3CCC3CCCC3)ccc2c1Br
76 to 77 | NC(=O)CCCN(Cc1ccccc1)Cc1ccccc1
258 to 261 | CC1CN(S(C)(=O)=O)Cc2nc3c(N)nc4ccccc4c3n21 (stereo unspecified)
220 to 222 | Nc1c(N=O)c(=O)n(CCC2=CCCCC2)c(=O)n1CCC1=CCCCC1
147 to 148 | CSC1C(=O)Nc2c(C(=O)c3ccccc3F)cccc21 (stereo unspecified)
> 300 | O=[N+]([O-])c1cccc2ccc3nc(O)c(O)nc3c12
55 to 58 | CC(=O)Cn1nc(C)oc1=O
176 to 179 | FC(F)(F)c1cc(Br)c2nc(N3CCN(c4ncc(Cl)cc4Cl)CC3)[nH]c2c1
170 to 171 | COc1cc(C)nc(N(C)C(=O)NS(=O)(=O)c2c(Cl)cccc2Cl)n1
184 to 186 | CCCc1nc2c(N)nc3ccccc3c2n1CCCC1(C)OCCO1
98 to 106 | CC(CCCO[Si](C)(C)C(C)(C)C)C1CCC2C3=CC=C4C(C)(C)C(O[Si](C)(C)C(C)(C)C)CCC4(C)C3CCC21C (stereo unspecified)
137 to 142 | CNC(=NCCSSCc1nc[nH]c1C)NC#N
175 | CCc1ccc(C(N)=O)c([N+](=O)[O-])c1
213 to 214 | CC(O)=C(C#N)C(=O)Nc1ccc(Br)cc1
96 to 99 | CC(C)(C)NC(=O)[C@@H]1CCCN1C(=O)[C@@H](O)[C@H](Cc1ccccc1)NC(=O)[C@H](CC(N)=O)NCc1ccccc1
208 | CCN=C(c1ccc(OC)c(OC)c1)N1CCCc2cc(C3=NNC(=O)SC3C)ccc21 (stereo unspecified)
78.2 to 78.4 | COc1ccc(-c2cccc(Cl)c2)cc1Cn1cncn1

melting point [°C] | Compound
154 | Cc1cccc(C2c3ccccc3S(=O)(=O)N2C)c1 (single isomer, unassigned; (+))
150 to 151 | COc1cccc(CCc2c(CCNC(=O)CCCCC(=O)NCCc3ccccc3)ccc(OC)c2OC)c1
106 | CC(C)c1onc2c1c(=O)n(C)c(=O)n2C
155 to 157 | Cc1ccc(OS(=O)(=O)c2ccc(N3CCN(C)C3=O)cc2)cc1
154 to 155 | O=C(Nc1ccc(-n2nc(C(F)(F)F)cc2OC(F)F)cc1)c1ccncc1
100 to 102 | C=CCn1c(COCc2ccc(OC)cc2)nc(C(C)C)c1Sc1cc(Cl)cc(Cl)c1
113 to 114 | CC1(C)OC(=O)C(Oc2ccc(Cl)cc2)=C1c1ccc(S(C)(=O)=O)cc1
70 to 71 | CCCCCCCCCCCCS(=O)(=O)N1CCCSC1=C(Br)[N+](=O)[O-]
198 | CCOCc1nc2c(N)nc3cc(N4CCCC4=O)cnc3c2n1CC(C)C
145 to 146 | COc1nc2nc(SCc3ccccc3)nn2cc1C
156 to 158 | C/C(=N\O)c1cccc(-c2nc3sccn3c2-c2ccnc(N[C@@H]3CCCN(S(=O)(=O)c4ccc(Cl)cc4)C3)n2)c1
168 to 171 | COc1cc(N2CCN(c3c(C)c(C)c4c(c3C)CC(C)(C)O4)CC2)ccc1Cl
248 to 250 | O=C(CC1c2ccccc2CCc2ccccc21)Nc1ccc(C(=O)O)cc1
195 to 196 | CCC(O)(CC(=O)OC(C)(C)C)c1cc2n(c(=O)c1COC(C)=O)Cc1cc3ccccc3nc1-2 (stereo unspecified)
54 to 57 | COP(=O)(Cc1nc(C)c(C)o1)OC
64 to 65 | OC/C(=C/c1ccccc1)c1cccs1
130 to 133 | CCCn1c(=O)c(C(=O)OCC)c(O)c2cnc(SC)nc21
240 to 243 | CCCCCc1cc2c(nc(O)n2CC(C)(C)O)c(N)n1
131 to 133 | COC1(c2cc(F)cc(Sc3ccc(C(=NO)C(F)(F)F)cc3)c2)CCOCC1
76 to 78 | CCCCCCCOc1ccc(C(=O)O)c(Cl)c1
